{"source": "patent US4036957A", "about": "“Phenoxy compounds in combinations to suppress gastric bleeding in aspirin therapy” (priority 1975, dated 1977)", "key": {"[1]": {"system": "aspirin-induced gastric bleeding", "assay": "Aspirin-induced gastric bleeding in Cr51 labeled Heidenhain pouch dogs, oral", "type": "in vivo", "conditions": "dog", "description": "Methocarbamol (Compound 3) and Metaxalone (Compound 15) were evaluated for their effectiveness upon oral administration against aspirin-induced gastric bleeding in dogs. Three female chronic Heindehain pouch dogs were used. Red blood cells from each dog were labeled with Cr^51. The dogs were fasted 24 hours prior to any study and three days elapsed between studies. On experimental days each fundic pouch was rinsed with tepid tap water and then filled with 10 ml. of normal saline. After 30 minutes the saline was replaced with 10 ml. of artificial gastric juice (USP, pH 1.3). The dogs were given Compound 3 (200 mg/kg) or Compound 15 (50 and 100 mg/kg) or placebo (starch) orally in gelatin capsules. The 10 ml. of gastric juice was removed from the pouch after 60 minutes and replaced with another 10 ml. of juice containing 100 mg. of aspirin (80 mesh). This was likewise removed after 60 minutes. All samples collected from the pouches were counted for radio-activity using a deep-well counter. From the amount of radio-activity present in the gastric samples, the loss of blood into the pouch was determined. The results are shown in Table 3 and show the effectiveness of orally administering Compounds 3 and 15 in preventing aspirin-induced gastric bleeding."}, "aspirin-induced bleeding": {"system": "aspirin-induced bleeding", "conditions": "rat; for Gastric Bleeding Index / Percent Decrease In Mucosal Hemorrhage vs. Control / Total Hemoglobin Loss / Volume Gastric Secretion: aspirin 375 p.o.; for Total Hemoglobin Loss / Volume Gastric Secretion: ± S.E.", "description": "The effect of glyceryl guaiacolate (Compound 8) on aspirin-induced bleeding in rats was studied using the following procedure. Female Sprague-Dawley rats, weighing 140-160 g. and fasted for 24 hrs. on wire were divided into groups of 10 animals each. All animals were anesthetized with Metofane® and a ligature placed at the pyloric-duodenal junction. Groups serving as controls received normal saline (4.0 ml/kg, i.p.). Some groups received normal saline and in addition were given aspirin (375 mg/kg, p.o.) in artificial gastric juice; the remaining groups received aspirin in the same amount and also glyceryl guaiacolate 30 min. prior to the aspirin. The aspirin was administered in artificial gastric juice (USP, […]) in a total volume of 2 ml. to each rat. Following a recovery period of 1 hr. the animals received saline, aspirin and glyceryl guaiacolate in the amounts and by the routes indicated. In most of the experiments, 90 min. following aspirin the rats were sacrificed by cervical dislocation. The stomachs were removed and gastric contents collected for further analysis. […] Hemoglobin loss produced by the aspirin was determined by the colorimetric method of Bing and Baker (J. Biol. Chem. 92: 589, 1931). The condition of the gastric mucosa was also assessed by determining the incidence and severity of damage using the scoring system described hereinabove to obtain the \"Gastric Bleeding Index\".\nFollowing the procedure of Example 26, methocarbamol (Compound 3 ) was tested further in rats via intraperitoneal and intraduodenal administration."}, "[2]": {"system": "aspirin-induced gastric bleeding", "assay": "Prevention of aspirin-induced gastric bleeding in pyloric-ligated rats, i.p. test compound (Examples 1-22)", "type": "in vivo, Female Sprague-Dawley rats", "conditions": "rat, aspirin 375 mg/kg p.o.; for change in vivo at 100 mg/kg: ip", "description": "The prevention of aspirin-induced bleeding in rats was determined by the following procedure. Female Sprague-Dawley rats weighing 150-180 g. were fasted for 24 hours on wire and divided into groups of six animals each. The rats were anesthetized and a ligature placed at the pyloric-duodenal junction. Groups serving as controls received normal saline (4.0 ml/kg, i.p.). […] Some of the compounds were tested at 50 mg/kg, i.p. The rats were sacrificed 60 min. after aspirin administration by cervical dislocation. The volume of the gastric contents was determined and compared against that produced with the same amount of aspirin for change in volume. […] (Gradation between 0 to 40 is on an even scale)."}, "[3]": {"conditions": "100 mg/kg intraduodenal, P <0.05"}, "[4]": {"conditions": "200 mg/kg intraduodenal, P <0.05"}, "[5]": {"conditions": "400 mg/kg intraduodenal, P <0.05"}}, "note": "Where two headings read alike, the source gives them in different places.", "data": [{"smiles": "COc1ccccc1OCC(O)COC(N)=O", "note": "(stereo not drawn) [Compound 3, 3-(o-methoxyphenoxy)-1,2-propanediol-1-carbamate]", "values": [{"measurement": "% Protection", "setting": "[1]; 200 mg/kg p.o.", "value": 79, "unit": "%"}, {"measurement": "Mucosal Blood Loss, HCl + Aspirin", "setting": "[1]; 200 mg/kg p.o., ± S.E.", "value": "6.6 ± 3.1", "unit": "µL"}, {"measurement": "Mucosal Blood Loss, HCl", "setting": "[1]; 200 mg/kg p.o., ± S.E., without aspirin", "value": "3.5 ± 0.7", "unit": "µL"}, {"measurement": "% Change from Control (mucosal blood loss)", "setting": "[1]; 200 mg/kg p.o., P > .05", "value": "+88%"}, {"measurement": "preventing aspirin-induced gastric bleeding (in words)", "setting": "[1]; oral", "value": "effectiveness"}, {"measurement": "Gastric Bleeding Index", "setting": "aspirin-induced bleeding; 50 mg/kg i.p.", "value": "34 ± 2"}, {"measurement": "Percent Decrease In Mucosal Hemorrhage vs. Control", "setting": "aspirin-induced bleeding; 50 mg/kg i.p.", "value": "none"}, {"measurement": "Total Hemoglobin Loss", "setting": "aspirin-induced bleeding; 50 mg/kg i.p.", "value": "22.4 ± 2.4", "unit": "mg"}, {"measurement": "Volume Gastric Secretion", "setting": "aspirin-induced bleeding; 50 mg/kg i.p.", "value": "6.2 ± 0.5", "unit": "mL"}, {"measurement": "Percent Decrease In Mucosal Hemorrhage vs. Control", "setting": "aspirin-induced bleeding; 100 mg/kg i.p.", "value": 62, "unit": "%"}, {"measurement": "Volume Gastric Secretion", "setting": "aspirin-induced bleeding; 100 mg/kg i.p.", "value": "5.5 ± 0.3", "unit": "mL"}, {"measurement": "Total Hemoglobin Loss", "setting": "aspirin-induced bleeding; 100 mg/kg i.p., P <0.05", "value": "11.6 ± 3.6", "unit": "mg"}, {"measurement": "Gastric Bleeding Index", "setting": "aspirin-induced bleeding; 100 mg/kg i.p., P <0.05", "value": "13 ± 6"}, {"measurement": "Gastric Bleeding Index", "setting": "aspirin-induced bleeding; 100 mg/kg intraduodenal", "value": "24 ± 3"}, {"measurement": "Percent Decrease In Mucosal Hemorrhage vs. Control", "setting": "aspirin-induced bleeding; 100 mg/kg intraduodenal", "value": 27, "unit": "%"}, {"measurement": "Total Hemoglobin Loss", "setting": "aspirin-induced bleeding; [3]", "value": "27.8 ± 0.1", "unit": "mg"}, {"measurement": "Volume Gastric Secretion", "setting": "aspirin-induced bleeding; [3]", "value": "5.0 ± 0.1", "unit": "mL"}, {"measurement": "Percent Decrease In Mucosal Hemorrhage vs. Control", "setting": "aspirin-induced bleeding; 200 mg/kg i.p.", "value": 97, "unit": "%"}, {"measurement": "Total Hemoglobin Loss", "setting": "aspirin-induced bleeding; 200 mg/kg i.p., P <0.05", "value": "1.5 ± 0.5", "unit": "mg"}, {"measurement": "Volume Gastric Secretion", "setting": "aspirin-induced bleeding; 200 mg/kg i.p., P <0.05", "value": "3.7 ± 0.4", "unit": "mL"}, {"measurement": "Gastric Bleeding Index", "setting": "aspirin-induced bleeding; 200 mg/kg i.p., P <0.05", "value": "1 ± 1"}, {"measurement": "Percent Decrease In Mucosal Hemorrhage vs. Control", "setting": "aspirin-induced bleeding; 200 mg/kg intraduodenal", "value": 67, "unit": "%"}, {"measurement": "Total Hemoglobin Loss", "setting": "aspirin-induced bleeding; [4]", "value": "7.0 ± 2.8", "unit": "mg"}, {"measurement": "Volume Gastric Secretion", "setting": "aspirin-induced bleeding; [4]", "value": "3.5 ± 0.6", "unit": "mL"}, {"measurement": "Gastric Bleeding Index", "setting": "aspirin-induced bleeding; [4]", "value": "11 ± 6"}, {"measurement": "Percent Decrease In Mucosal Hemorrhage vs. Control", "setting": "aspirin-induced bleeding; 400 mg/kg intraduodenal", "value": 99, "unit": "%"}, {"measurement": "Total Hemoglobin Loss", "setting": "aspirin-induced bleeding; [5]", "value": "5.1 ± 3.6", "unit": "mg"}, {"measurement": "Volume Gastric Secretion", "setting": "aspirin-induced bleeding; [5]", "value": "1.3 ± 0.1", "unit": "mL"}, {"measurement": "Gastric Bleeding Index", "setting": "aspirin-induced bleeding; [5]", "value": "0.4 ± 1"}, {"measurement": "reducing bleeding (in words)", "setting": "aspirin-induced bleeding; one part by weight methocarbamol to 3.75 parts aspirin", "value": "significantly effective"}, {"measurement": "change in vivo at 100 mg/kg", "setting": "[2]; 1 h, 100 mg/kg i.p., read-out: Percent Decrease in Mucosal Bleeding vs Control", "value": -43, "unit": "%"}, {"measurement": "change in vivo at 100 mg/kg", "setting": "[2]; 100 mg/kg i.p. (column head states no dose), read-out: Vol. % Decrease in Gastric Secretion", "value": -18.3, "unit": "%"}, {"measurement": "Gastric Bleeding Index", "setting": "[2]; score 0 to 40, 100 mg/kg i.p. (column head states no dose)", "value": 21.7}]}]}
